Measurements reported in patent US6849656B1, “Indole-containing and combretastatin-related anti-mitotic and anti-tubulin polymerization agents” (Baylor University, priority 1999, dated 2005).
Converted amounts (≈) assume the structure as drawn. Where two headings read alike, the source gives them in different places.

Experiments:
[1] = test system: SW1736 (Thyroid ca); assay: Growth inhibition of human cancer cell line SW1736; type: cell-based; details: SW-1736, SW1736, Table I
[2] = test system: NCI-H460 (Lung-NSC); assay: cells; type: cell-based
Method: (§1) 3-(3′,4′,5′-Trimethoxybenzoyl)-2-(4′-methoxyphenyl)-6-methoxyindole was evaluated in terms of growth inhibitory activity against several human cancer cell lines, including pancreas, ovarian, CNS, lung-NSC, colon, and prostate lines. The assay used is described in Monks et al. Briefly, the cell suspensions, diluted according to the particular cell type and the expected target cell density (5,000-40,000 cells per well based on cell growth characteristics), were added by pipet (100 μl) to 96-well microtiter plates. Inoculates were allowed a preincubation time of24-28 hours at 37° C. for stabilization. Incubation with the inhibitor compounds lasted for 48 hours in 5% CO2 atmosphere and 100% humidity. Determination of cell growth was done by in situ fixation of cells, followed by staining with a protein-binding dye, sulforhodamine B (SRB), which binds to the basic amino acids of cellular macromolecules. The solubilized stain was measured spectrophotometrically. G150 is defined as the dosage required to inhibit tumor cell growth by 50%.

[3] = test system: FADU (Pharynx-sqam); assay: Growth inhibition of human cancer cell line FADU; type: cell-based; details: Table I
[4] = test system: DU-145 (Prostate); assay: Growth inhibition of human cancer cell line DU-145; type: cell-based
Method: as §1

[5] = test system: SK-N-SH (Neuroblast); assay: Growth inhibition of human cancer cell line SK-N-SH; type: cell-based; details: Table I
[6] = test system: BXPC-3 (Pancreas-a); assay: Growth inhibition of human cancer cell line BXPC-3; type: cell-based
Method: as §1

[7] = test system: T1, purified tubulin; assay: Inhibition of tubulin polymerization assay; type: biochemical, bovine
T1 construct: other: at 4 pM
Method: IC50 values for tubulin polymerization were determined according to the procedure described in Bai et al. Purified tubulin is obtained from bovine brain cells as described in Hamel and Lin. Various amounts of inhibitor were preincubated for 15 minutes at 37° C. with purified tubulin. After the incubation period, the reaction was cooled and GTP was added to induce tubulin polymerization. Polymerization was then monitored in a Gilford spectrophotometer at 350 nm. The final reaction mixtures (0.25 ml) contained 1.5 mg/ml tubulin, 0.6 mg/ml microtubule-associated proteins (MAPs), 0.5 mM GTP, […], 4% DMSO and 0.1M 4-morpholineethanesulfonate buffer (MES, pH 6.4). IC50 is the amount of inhibitor needed to inhibit tubulin polymerization 50% with respect to the amount of […] that occurs in the absence of inhibitor.

[8] = test system: NCI-H460 (Lung-NSC); details: data from synthesis of phenstatin phosphate (Pettit); cited from earlier work
[9] = test system: KM20L2 (Colon); details: data from synthesis of phenstatin phosphate (Pettit); cited from earlier work
[10] = test system: SF-295 (CNS); details: data from synthesis of phenstatin phosphate (Pettit); cited from earlier work
[11] = test system: purified tubulin; details: reported by Pettit and co-workers, cited from earlier work; for IC50: read-out: IC50 for inhibition of tubulin polymerization
[12] = test system: OVCAR-3 (Ovarian); details: data from synthesis of phenstatin phosphate (Pettit); cited from earlier work
[13] = test system: KM20L2 (Colon); assay: Growth inhibition of human cancer cell line KM20L2; type: cell-based
Method: as §1

[14] = test system: P388 leukemia cells; assay: Cytotoxic assay with P388 leukemia cells; type: cell-based
[15] = test system: SF-295 (CNS); assay: Growth inhibition of human cancer cell line SF-295; type: cell-based
Method: as §1

[16] = test system: OVCAR-3 (Ovarian); assay: Growth inhibition of human cancer cell line OVCAR-3; type: cell-based
Method: as §1

[17] = read-out: IC50 for inhibition of tubulin polymerization

COc1ccc(-c2c(C(=O)c3cc(OC)c(OC)c(OC)c3)oc3cc(OC)ccc23)cc1 [2-(3′,4′,5′-trimethoxybenzoyl)-3-(4′-methoxyphenyl)-6-methoxybenzo[b]furan, reference compound]
GI50 [1]: 0.047 µg/mL (≈ 0.105 µM)
GI50 ([2]; Homo sapiens, NCI-H460, Table I, read-out: GI50): 0.041 µg/mL (≈ 0.0914 µM)
GI50 [3]: 0.035 µg/mL (≈ 0.078 µM)
GI50 ([4]; Homo sapiens, DU-145, Table I, read-out: GI50): 0.062 µg/mL (≈ 0.138 µM)
GI50 [5]: 0.025 µg/mL (≈ 0.0557 µM)
GI50 ([6]; Homo sapiens, BXPC-3, Table I, read-out: GI50): 0.038 µg/mL (≈ 0.0847 µM)

COc1ccc(-c2[nH]c3cc(OC)ccc3c2C(=O)c2cc(OC)c(OC)c(OC)c2)cc1 [3-(3′,4′,5′-trimethoxybenzoyl)-2-(4′-methoxyphenyl)-6-methoxyindole]
IC50 [7, 17]: 0.5 to 1.5 µM

COc1ccc(/C=C\c2cc(OC)c(OC)c(OC)c2)cc1N [Amine-CA-4 8]
GI50 ([2]; Homo sapiens, NCI-H460, read-out: GI50): 0.00068 µg/mL (≈ 0.00216 µM)
IC50 [7, 17]: 1.2 ± 0.02 µM

COc1ccc(/C=C\c2cc(OC)c(OC)c(OC)c2)cc1OP(=O)(O)O [Combretastatin A-4 Prodrug]
GI50 [8]: 0.029 µg/mL (≈ 0.0732 µM)
GI50 [9]: 0.34 µg/mL (≈ 0.858 µM)
GI50 [10]: 0.036 µg/mL (≈ 0.0908 µM)
inhibition of tubulin polymerization [11]: no inhibition
IC50 [11]: > 80 µM
GI50 [12]: 0.023 µg/mL (≈ 0.058 µM)

COc1ccc(-c2[nH]c3cc(OC)ccc3c2C(=O)c2cc(OC)c(OC)c(OC)c2)cc1 [Indole-based Ligand 33, 3-(3′,4′,5′-trimethoxybenzoyl)-2-(4′-methoxyphenyl)-6-methoxyindole]
GI50 ([13]; Homo sapiens, KM-20L2, KM20L2, 48 hours, SRB, read-out: GI50): 0.0017 µg/mL (≈ 0.0038 µM)
ED50 (effective dosage required to inhibit 50% of cell growth) ([14]; P388 leukemia cells): 0.0133 µg/mL
GI50 ([15]; Homo sapiens, SF-295, 48 hours, SRB, read-out: GI50): 0.0024 µg/mL (≈ 0.00536 µM)
GI50 ([2]; Homo sapiens, NCI-H460, 48 hours, SRB, read-out: GI50): 0.0026 µg/mL (≈ 0.00581 µM)
GI50 ([4]; Homo sapiens, DU-145, 48 hours, SRB, read-out: GI50): 0.0023 µg/mL (≈ 0.00514 µM)
GI50 ([6]; Homo sapiens, BXPC-3, 48 hours, SRB, read-out: GI50): 0.002 µg/mL (≈ 0.00447 µM)
GI50 ([16]; Homo sapiens, OVCAR-3, 48 hours, SRB, read-out: GI50): 0.0024 µg/mL (≈ 0.00536 µM)

COc1ccc(C(=O)c2cc(OC)c(OC)c(OC)c2)cc1OP(=O)(O)O [Phenstatin Prodrug]
GI50 [8]: 0.035 µg/mL (≈ 0.0879 µM)
GI50 [9]: 0.27 µg/mL (≈ 0.678 µM)
GI50 [10]: 0.012 µg/mL (≈ 0.0301 µM)
activity in inhibition of tubulin polymerization compared to phenstatin [11]: 40%
IC50 [11]: 21 ± 3 µM
GI50 [12]: 0.0025 µg/mL (≈ 0.00628 µM)

COc1ccc(C(=O)c2cc(OC)c(OC)c(OC)c2)cc1O [Phenstatin, phenstatin]
GI50 [8]: 0.0057 µg/mL (≈ 0.0179 µM)
GI50 [9]: 0.0004 µg/mL (≈ 0.00126 µM)
GI50 [10]: 0.052 µg/mL (≈ 0.163 µM)
IC50 [11]: 1 ± 0.2 µM
GI50 [12]: 0.0023 µg/mL (≈ 0.00723 µM)

CCOP(=O)(Nc1cc(/C=C\c2cc(OC)c(OC)c(OC)c2)ccc1OC)OCC [Phosphoramidate Analog 10, (Z)-1-(3′-Diethylphosphoramidate-4′-methoxyphenyl)-2-(3″,4″,5″-trimethoxyphenyl)ethene]
GI50 ([13]; KM20L2): 0.28 µg/mL (≈ 0.62 µM)
LC50 ([13]; KM20L2): >10 µg/mL
TGI ([13]; KM20L2): 0.61 µg/mL (≈ 1.35 µM)
GI50 ([14]; P388): 0.31 µg/mL (≈ 0.687 µM)
GI50 ([15]; SF-295): 0.24 µg/mL (≈ 0.532 µM)
LC50 ([15]; SF-295): >10 µg/mL
TGI ([15]; SF-295): >10 µg/mL
GI50 ([2]; NCI-H460): 0.35 µg/mL (≈ 0.775 µM)
LC50 ([2]; NCI-H460): >10 µg/mL
TGI ([2]; NCI-H460): >10 µg/mL
GI50 ([4]; DU-145): 0.26 µg/mL (≈ 0.576 µM)
LC50 ([4]; DU-145): >10 µg/mL
TGI ([4]; DU-145): 0.26 µg/mL (≈ 0.576 µM)
GI50 ([6]; BXPC-3): 0.15 µg/mL (≈ 0.332 µM)
LC50 ([6]; BXPC-3): >10 µg/mL
TGI ([6]; BXPC-3): 0.57 µg/mL (≈ 1.26 µM)
GI50 ([16]; OVCAR-3): 0.19 µg/mL (≈ 0.421 µM)
LC50 ([16]; OVCAR-3): >10 µg/mL
TGI ([16]; OVCAR-3): 0.86 µg/mL (≈ 1.9 µM)
activity in inhibition of tubulin polymerization [7]: little if any activity
